According to patent EP0591697B1, “Cloning and characterization of the growth hormone releasing hormone receptor” (Thorner, Michael Oliver, priority 1992, dated 1994):
“Also recorded” adds a separate entry of the source. Where no end group is shown, it is not given here.

Experiments:
[1] = system: GHRH-R; test: GHRH binding assay in crude anterior pituitary membrane pellets (125I-GHRHa); parameters: species or system ovine; conditions: for displacement of GHRH in ovine pituitary: at 500 nM; for competition for the GHRHa binding site: at 100 nanomolar concentrations
Experimental: Specific binding is defined as the difference in the binding seen with 20 pM iodinated analog alone and binding of the analog in the presence of 10 nM non-iodinated GHRHa.
All steps were performed at 4°C. Frozen ovine or bovine anterior pituitaries (ovine: approximately 1 gm/pituitary obtained from Dr. Ian Clarke, Melbourne, Australia; bovine: approximately 2.5 gm/pituitary special handling from Pel-Freez, of Rogers, Arkansas) were washed of blood, cleaned of connective tissue and homogenized (using a Dounce homogenizer) in 50mM HEPES buffer, 100 mM NaCl, 10mM EDTA, 0.1 µM EGTA, pH 7.4 with 0.5 mM PMSF (phenyl methyl sulfonyl fluoride), 10 µg/ml leupeptin, 10 µg/ml pepstatin A, and 200 U/ml (units/ml) aprotinin. This buffer is used to remove endogenous GTP which might be bound to G proteins and to restore high affinity binding. The homogenate was spun at top speed in a microfuge and the supernatant discarded. The upper (membrane) layer of the pellet was then gently resuspended in binding buffer containing 50 mM Tris buffer, 5 mM EGTA, 5 mM MgCl2, 50µg/ml alamethicin, 30 µg/ml bacitracin and other protease inhibitors as above.
1/50 pituitary equivalent per tube was incubated in binding buffer with approximately 100,000 counts of iodinated probe in a volume of 500 µl at room temperature for 1 hour. The total counts delivered and the percent of counts bound for each tube was determined with 3 to 6 replicates per experimental condition. Saturation binding profiles were analyzed with the computer program Ligand which performs a statistically weighted least squares fit to the exact ligand binding equation in nontransformed coordinates.

[2] = system: GHRH-R; test: Photoaffinity cross-linking of receptor in pituitary membranes, SDS-PAGE autoradiography; format: binding, ovine
Experimental: Photoprobe binding in ovine pituitary membrane pellets was determined by γ-counting and UV induced cross-linking was examined by autoradiagraphy of sodium dodecylsulfate polyacrylamide electrophoresis (SDS-PAGE) gels. ^125I-GHRHa-ANB-NOS probe bound with an affinity of about one nanomole, nM (compared to about 160 picomole, pM, for GHRHa).
Photoprobe binding to membranes was evaluated with crude membrane binding assay and then analyzed further by SDS-PAGE electrophoresis to identify the binding sites. Photoprobes were incubated in the dark, photolysed for 10 minutes with a long wave (366 nm) UV lamp, and then the samples were pelleted. The pellets were counted and then extracted by boiling directly in SDS sample buffer (total SDS extracts). Alternatively, the labeled pellets were extracted in a mild detergent solution (5 mM CHAPS) centrifuged, and the chloroform/methanol concentrated supernatants denatured with SDS buffer (CHAPS extracts). These samples were then electrophoresed in SDS gels and autoradiographed.

[3] = molecular target: T1, secretin and VIP receptors (Homo sapiens, UniProt P47872); conditions: human pancreas, cited from earlier work; for inhibition: at 10 µM, 125I-secretin
T1 construct: host or cells: human pancreas
T1 sequence (P47872 23-440): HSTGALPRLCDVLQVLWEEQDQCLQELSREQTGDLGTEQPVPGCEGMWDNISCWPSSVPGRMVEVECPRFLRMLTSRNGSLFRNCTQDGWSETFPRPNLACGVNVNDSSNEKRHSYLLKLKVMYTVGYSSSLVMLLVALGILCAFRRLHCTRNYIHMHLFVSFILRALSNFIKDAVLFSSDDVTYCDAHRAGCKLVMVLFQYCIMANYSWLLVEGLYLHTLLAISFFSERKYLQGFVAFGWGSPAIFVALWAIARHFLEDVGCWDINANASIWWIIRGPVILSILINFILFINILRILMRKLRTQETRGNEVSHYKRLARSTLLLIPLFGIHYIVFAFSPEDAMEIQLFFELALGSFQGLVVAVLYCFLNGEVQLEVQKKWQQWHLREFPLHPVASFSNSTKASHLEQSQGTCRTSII

[4] = molecular target: T2, GHRH-R (Homo sapiens, UniProt Q02643); test: Iodinated GHRHa binding to COS cells / COS cell membranes transfected with pCDM8 containing HAP 7 cDNA; conditions: for binding of iodinated GHRH in presence of peptide: 100 nM of peptide
T2 construct: expressed in transfected cells
T2 sequence (Q02643 23-423): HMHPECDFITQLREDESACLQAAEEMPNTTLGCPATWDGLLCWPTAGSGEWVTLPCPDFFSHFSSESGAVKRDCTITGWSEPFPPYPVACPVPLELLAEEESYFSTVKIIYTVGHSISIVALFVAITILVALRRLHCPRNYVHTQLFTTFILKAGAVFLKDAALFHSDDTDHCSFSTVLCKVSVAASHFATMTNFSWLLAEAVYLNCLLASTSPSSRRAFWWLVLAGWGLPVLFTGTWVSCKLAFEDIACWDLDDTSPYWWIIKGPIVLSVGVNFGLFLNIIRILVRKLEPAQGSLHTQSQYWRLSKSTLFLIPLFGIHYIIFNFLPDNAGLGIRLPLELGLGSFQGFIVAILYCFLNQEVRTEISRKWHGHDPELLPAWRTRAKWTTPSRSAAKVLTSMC
Experimental: The bars indicate the total counts bound to the cells after incubation with ^125I-GHRHa or in the presence of gradually increasing amounts of non-iodinated GRF.
Binding in the presence of increasing concentrations of competing peptides is shown. […] Each point represents an N of 6 ± standard error. Non-specific binding was 20-30% of total counts in COS cell membranes, and 40-60% in crude pituitary membranes.
Cos-1 cells were transfected with the vector formed by splicing pCDM8 and HAP cDNA, and Cos-1 cell membranes were prepared 72 hours subsequently. Cos-1 cells were transfected using 10 µg of plasmid DNA per 6x10^5 cells in a 100-mm dish using the DEAE-dextran method described by Cullen. […] COS cell cultures were transfected in parallel with pCDM8 containing a cDNA encoding the rat AT1 angiotensin II receptor.

Compound: O[C@H](CS)[C@H](O)CS (racemic) [DTT, dithiothreitol]
- specific binding in the GHRH assay after preincubation ([1]; 1 mM dithiothreitol): completely eliminated

Compound: Nc1nc2c(ncn2[C@@H]2O[C@H](COP(=O)(O)OP(=O)(O)OP(O)(O)=S)[C@@H](O)[C@H]2O)c(=O)[nH]1 [GTPγS]
- reduction of 55 kDa cross-linked band ([2]; 50 µM GTPγS): over 50%
- displacement of both photoprobes from membrane pellets ([1]; 50 µM GTPγS): partially displaced
- reduction of specific binding of GHRHa radioligand ([1]; 50 µM GTPγS): up to 65%

Compound: CC[C@H](C)[C@H](NC(=O)CNC(=O)[C@H](CC(=O)O)NC(=O)[C@H](CO)NC(=O)[C@@H](N)Cc1c[nH]cn1)C(=O)N[C@@H](Cc1ccccc1)C(=O)N[C@H](C(=O)N[C@@H](CC(=O)O)C(=O)N[C@@H](CO)C(=O)N[C@@H](Cc1ccc(O)cc1)C(=O)N[C@@H](CO)C(=O)N[C@@H](CCCNC(=N)N)C(=O)N[C@@H](Cc1ccc(O)cc1)C(=O)N[C@@H](CCCNC(=N)N)C(=O)N[C@@H](CCCCN)C(=O)N[C@@H](CCC(N)=O)C(=O)N[C@@H](CCSC)C(=O)N[C@@H](C)C(=O)N[C@H](C(=O)N[C@@H](CCCCN)C(=O)N[C@@H](CCCCN)C(=O)N[C@@H](Cc1ccc(O)cc1)C(=O)N[C@@H](CC(C)C)C(=O)N[C@@H](C)C(=O)N[C@@H](C)C(=O)N[C@H](C(=O)N[C@@H](CC(C)C)C(=O)NCC(=O)N[C@@H](CCCCN)C(=O)N[C@@H](CCCNC(=N)N)C(=O)N[C@@H](Cc1ccc(O)cc1)C(=O)N[C@@H](CCCCN)C(=O)N[C@@H](CCC(N)=O)C(=O)N[C@@H](CCCNC(=N)N)C(=O)N[C@H](C(=O)N[C@@H](CCCCN)C(=O)N[C@@H](CC(N)=O)C(=O)N[C@@H](CCCCN)C(N)=O)C(C)C)C(C)C)C(C)C)[C@@H](C)O [PACAP]
- displacement of GHRH in ovine pituitary [1]: significant displacement
- competition for the GHRHa binding site [1]: no competition; also recorded: did not compete

Compound: GHRH(1-29)-NH2
- inhibition [3]: 20%

Compound: PHM: competing peptide of the VIP family tested at 100 nM (HADGVFTSDFSKLLGQLSAKKYLESLM; ends and bridges not checked; UniProt P01282 81-107, looked up)
- binding of iodinated GHRH in presence of peptide [4]: uneffected

Compound: VIP: vasoactive intestinal peptide
- effect on 55 kDa cross-linked band ([2]; 100 nM VIP): unaffected
- effect on bound counts of GHRHa ([4]; 100 nM VIP, transfected COS cells, Figure 15): no effect
- binding of iodinated GHRH in presence of peptide [4]: uneffected
- displacement of GHRH in ovine pituitary [1]: not
- competition for the GHRHa binding site [1]: no competition; also recorded: did not compete
- inhibition [3]: 20%

Compound: calcitonin
- binding of iodinated GHRH in presence of peptide [4]: uneffected

Compound: galanin
- binding of iodinated GHRH in presence of peptide [4]: uneffected

Compound: helodermin
- Kd ([3]; using 125I-secretin, read-out: Kds): 200 nM

Compound: parathyroid hormone
- binding of iodinated GHRH in presence of peptide [4]: uneffected

Compound: secretin
- binding of iodinated GHRH in presence of peptide [4]: uneffected

Compound: somatostatin
- binding of iodinated GHRH in presence of peptide [4]: uneffected
